For six compounds, IC50 and selectivity ratio results are on record in ChEMBL document CHEMBL3763105, “Semisynthesis of new aphidicolin derivatives with high activity against Trypanosoma cruzi” (Bioorg Med Chem Lett, 2016).

A short description of data set [1]: Cytotoxicity against mouse C3H cells after 72 hrs by MTS assay. Type of data set: cell-based.
For data set [2], the system named is Trypanosoma cruzi. Briefly: Antitrypanosomal activity against Trypanosoma cruzi Tulahuen amastigotes infected in mouse C3H cells after 72 hrs by microplate reader analysis. It is filed as functional, organism-based.
The nature of data set [3]: Selectivity index, ratio of IC50 for mouse C3H cells to IC50 for Trypanosoma cruzi Tulahuen amastigotes infected in mouse C3H cells. It is filed as toxicity, cell-based. The following applies: read-out: Ratio IC50.

Consider `C[C@]12COS(=O)O[C@H]1CC[C@]1(C)[C@@H]2CC[C@@H]2C[C@H]3C[C@]21CC[C@@]3(O)CO` (some centres not stated), for which the IC50 – broadly, the concentration that inhibits the measured activity by half – was above 100000 nM in data set [1] and 780 nM in data set [2]. In data set [3], the selectivity ratio was above 100.
Compound `CC(C)(C)[Si](C)(C)OC[C@]1(O)CC[C@@]23C[C@@H]1C[C@H]2CC[C@@H]1[C@@](C)(CO[Si](C)(C)C(C)(C)C)C(=O)CC[C@]13C` registered an IC50 in data set [2] above 100000 nM.
Same read-out and setting: next, `CC(C)(C)[Si](C)(C)OC[C@]1(O)CC[C@@]23C[C@@H]1C[C@H]2CC[C@@H]1[C@@](C)(CO[Si](C)(C)C(C)(C)C)[C@@H](O)CC[C@]13C`: above 100000 nM.
With `C[C@]1(CO)/C(=N\O)CC[C@]2(C)[C@@H]1CC[C@@H]1C[C@H]3C[C@]12CC[C@@]3(O)CO`, the values for the IC50 in data set [1] and in data set [2] were 64500 nM and 1700 nM, respectively. For the same compound, the selectivity ratio in data set [3] was 37.9.
The matching figures for `O=C(Cn1ccnc1[N+](=O)[O-])NCc1ccccc1` [BENZNIDAZOLE]: above 100000 nM, 3000 nM and above 100.
The compound `COc1cccc2c1C(=O)c1c(O)c3c(c(O)c1C2=O)C[C@@](O)(C(=O)CO)C[C@@H]3O[C@H]1C[C@H](N)[C@H](O)[C@H](C)O1` [DOXORUBICIN] came in with an IC50 in data set [1] of 40 nM.
